Data taken from patent publication US10448639B2, “Fungicidal pyrazoles” (FMC CORPORATION, priority 2009, dated 2019).

How the values were obtained:
[1] = system: Botrytis cinerea; assay: Test B: tomato Botrytis, preventive spray on tomato seedlings, visual disease rating; settings: for pest or weed control at 200 µg/mL: Botrytis cinerea, in Solanum lycopersicum, 120 h, read-out: Test B disease control rating
[2] = system: Erysiphe graminis f sp. tritici; assay: Test J: wheat powdery mildew, preventive spray on wheat seedlings, visual disease rating; settings: for pest or weed control at 200 µg/mL: Blumeria graminis, in Triticum aestivum, 192 h, read-out: Test J disease control rating
[3] = system: Puccinia recondita f. sp. tritici; assay: Test I: wheat leaf rust, preventive spray on wheat seedlings, visual disease rating; settings: for pest or weed control at 200 µg/mL: 192 h, read-out: Test I disease control rating
[4] = system: Septoria nodorum; assay: Test F: Septoria glume blotch, preventive spray on wheat seedlings, visual disease rating; settings: for pest or weed control at 200 µg/mL: Parastagonospora nodorum, in Triticum aestivum, 192 h, read-out: Test F disease control rating
[5] = system: Alternaria solani; assay: Test C: tomato early blight, preventive spray on tomato seedlings, visual disease rating; settings: for pest or weed control at 200 µg/mL: Alternaria solani, in Solanum lycopersicum, 168 h, read-out: Test C disease control rating
[6] = system: Puccinia recondita f. sp. tritici; assay: Test H: wheat leaf rust, curative spray on inoculated wheat seedlings, visual disease rating; settings: for Test H rating (% disease control): curative, 0 = no control relative to controls; for pest or weed control at 200 µg/mL: 144 h, read-out: Test H disease control rating
[7] = system: Septoria tritici; assay: Test G: wheat leaf blotch, preventive spray on wheat seedlings, visual disease rating; settings: wheat leaf blotch, preventive spray; 100 = 100% disease control, 0 = no control
[8] = tomato Botrytis, preventive spray, 100 = 100% disease control, 0 = no control
[9] = wheat powdery mildew, preventive spray, 100 = 100% disease control, 0 = no control
[10] = wheat leaf rust, preventive spray, 100 = 100% disease control, 0 = no control
[11] = Septoria glume blotch on wheat, preventive spray, 100 = 100% disease control, 0 = no control
[12] = tomato early blight, preventive spray, 100 = 100% disease control, 0 = no control
[13] = tomato Botrytis, 100 = 100% disease control, 0 = no control relative to controls
[14] = wheat powdery mildew, 100 = 100% disease control, 0 = no control relative to controls
[15] = wheat leaf rust, preventive, 100 = 100% disease control, 0 = no control relative to controls
[16] = Septoria glume blotch, 100 = 100% disease control, 0 = no control relative to controls
[17] = tomato early blight, 100 = 100% disease control, 0 = no control relative to controls
[18] = wheat leaf rust, 100 = 100% disease control

In the case of COc1ccc(Oc2c(-c3ccc(F)cc3Cl)c(C)nn2C)c(F)c1 [compound 21], the “Test B rating (% disease control)” value [1, 8] is reported as 98%, the “Test J rating (% disease control)” value [2, 9] is reported as 99% and the “Test I rating (% disease control)” value [3, 10] is reported as 100%. The “Test F rating (% disease control)” value [4, 11] was 97% and the “Test C rating (% disease control)” value [5, 12] was 100%.
With Cc1nn(C)c(Nc2ccc(Cl)cc2Cl)c1-c1ccc(F)cc1Cl [compound 299] the “Test B rating (% disease control)” value [1, 13] was 100%, the “Test J rating (% disease control)” value [2, 14] was 100% and the “Test I rating (% disease control)” value [3, 15] was 100%. The “Test F rating (% disease control)” value [4, 16] was 51%, the “Test C rating (% disease control)” value [5, 17] was 95% and the “Test H rating (% disease control)” value [6, 18] was 41%.
Cc1nn(C)c(Nc2ccc(Cl)c(Cl)c2)c1-c1c(F)cc(C#N)cc1F [compound 123] was tested, and the “Test B rating (% disease control)” value [1, 8] was 99%, the “Test J rating (% disease control)” value [2, 9] was 0% and the “Test I rating (% disease control)” value [3, 10] was 80%. For the same compound, the “Test F rating (% disease control)” value [4, 11] was 40%, the “Test C rating (% disease control)” value [5, 12] was 0% and the “Test G rating (% disease control)” value [7] was 99%.
Cc1nn(C)c(C(O)c2ccc(F)cc2F)c1-c1ccc(F)cc1Cl (stereo not drawn) [Compound 351, 4-(2-chloro-4-fluorophenyl)-α-(2,4-difluorophenyl)-1,3-dimethyl-1H-pyrazole-5-methanol] gave a pest or weed control at 200 µg/mL [1] of 100%, a pest or weed control at 200 µg/mL [2] of 99% and a pest or weed control at 200 µg/mL [3] of 100%. For the same compound, the pest or weed control at 200 µg/mL [4] was 92%, the pest or weed control at 200 µg/mL [5] was 99% and the pest or weed control at 200 µg/mL [6] was 96%.
With Cc1nn(C)c(Nc2ccc(Cl)cc2Cl)c1-c1c(F)cccc1Cl [compound 283] the “Test B rating (% disease control)” value [1, 13] was 99%, the “Test J rating (% disease control)” value [2, 14] was 100% and the “Test I rating (% disease control)” value [3, 15] was 99%. The “Test F rating (% disease control)” value [4, 16] was 0%, the “Test C rating (% disease control)” value [5, 17] was 65% and the “Test H rating (% disease control)” value [6, 18] was 9%.
For COc1ccc(-c2c(C)nn(C)c2Nc2ccc(Cl)cc2Cl)c(Cl)c1 [compound 282], the “Test B rating (% disease control)” value [1, 13] was 99%, the “Test J rating (% disease control)” value [2, 14] was 100% and the “Test I rating (% disease control)” value [3, 15] was 99%. The “Test F rating (% disease control)” value [4, 16] was 0%, the “Test C rating (% disease control)” value [5, 17] was 98% and the “Test H rating (% disease control)” value [6, 18] was 0%.
In the case of Cc1nn(C)c(C(O)c2ccc(F)cc2)c1-c1ccc(F)cc1Cl (racemic) [compound 350], the “Test B disease control rating” value ([1]; tomato Botrytis, 100 = 100% disease control, 0 = no disease control relative to controls) is reported as 99%, the “Test J disease control rating” value ([2]; wheat powdery mildew, sprayed the day before inoculation, 100 = 100% disease control, 0 = no disease control relative to controls) is reported as 0% and the “Test I disease control rating” value ([3]; wheat leaf rust, sprayed the day before inoculation, 100 = 100% disease control, 0 = no disease control relative to controls) is reported as 96%. For the same compound, the “Test F disease control rating” value ([4]; Septoria glume blotch on wheat, 100 = 100% disease control, 0 = no disease control relative to controls) was 0%, the “Test C disease control rating” value ([5]; tomato early blight, 100 = 100% disease control, 0 = no disease control relative to controls) was 9% and the “Test H disease control rating” value ([6]; wheat leaf rust, sprayed after inoculation, 100 = 100% disease control, 0 = no disease control relative to controls) was 9%.
Cc1nn(C)c(Nc2c(Cl)cc(F)cc2Cl)c1-c1ccc(F)cc1Cl [Compound 369, 4-(2-chloro-4-fluorophenyl)-N-(2,6-dichloro-4-fluorophenyl)-1,3-dimethyl-1H-pyrazol-5-amine] gave a pest or weed control at 200 µg/mL [1] of 100%, a pest or weed control at 200 µg/mL [2] of 99% and a pest or weed control at 200 µg/mL [3] of 100%. It also gave a pest or weed control at 200 µg/mL [4] of 0%, a pest or weed control at 200 µg/mL [5] of 66% and a pest or weed control at 200 µg/mL [6] of 17%.
Cc1nn(C)c(Oc2ccc(C#N)cc2Cl)c1-c1ccc(F)cc1Br [compound 285] was tested, and the “Test B rating (% disease control)” value [1, 13] was 98%, the “Test J rating (% disease control)” value [2, 14] was 99% and the “Test I rating (% disease control)” value [3, 15] was 99%. The “Test F rating (% disease control)” value [4, 16] was 60%, the “Test C rating (% disease control)” value [5, 17] was 0% and the “Test H rating (% disease control)” value [6, 18] was 9%.
